Laboratory results reported in patent US10487093B2, “Heterocyclic compounds, in particular 2-oxo-4,4,5,5,6,6,7,7-octahydrobenzoxazole derivatives, and their use as antibacterial compounds” (priority 2016, dated 2019).
In brackets after ≈: the same amount, converted by molar mass. Like-named read-outs stand apart in the source and are kept apart here.

Experiments:
Assay type in all cases: cell-based
[1] = test system: Haemophilus influenzae ATCC 49247; test: MIC, broth microdilution (CLSI) versus planktonic bacteria; settings: ATCC49247; Haemophilus influenzae ATCC 49247; 16-20 h; mode of three independent experiments; read-out: MIC, Hi ATCC 49247
[2] = test system: Staphylococcus aureus ATCC 29213; test: as above; settings: ATCC29213; Staphylococcus aureus ATCC 29213; 16-20 h; mode of three independent experiments; read-out: MIC, Sa ATCC 29213
[3] = test system: Clostridium difficile ATCC 700057; test: MIC against anaerobes, agar dilution (CLSI), reference strain; settings: Clostridioides difficile, ATCC700057, 48 h, read-out: MIC, C. difficile ATCC 700057
[4] = test system: Bacteroides fragilis ATCC 25285; test: as above; settings: ATCC25285, agar dilution, Brucella blood agar, 35° C., 48 h, anaerobic conditions, read-out: MIC, B. fragilis ATCC 25285
[5] = test system: Bacteroides thetaiotaomicron ATCC 29741; test: microbe, parasite or virus in culture; settings: ATCC29741, agar dilution, Brucella blood agar, 35° C., 48 h, anaerobic conditions, read-out: MIC, B. thetaiotaomicron ATCC
[6] = test system: strains of Clostridium perfringens; test: microbe, parasite or virus in culture
[7] = test system: strains of Finegoldia magna; test: MIC against anaerobes, agar dilution (CLSI), clinical isolates; settings: Finegoldia magna, read-out: MIC
[8] = test system: strains of Parvimonas micra; test: as above
[9] = test system: strains of Peptoniphilus harei; test: as above; settings: Peptoniphilus harei, read-out: MIC
[10] = test system: strains of Peptostreptococcus anaerobius; test: as above
[11] = test system: strains of Propionibacterium acnes; test: as above; settings: Cutibacterium acnes
[12] = test system: strains of Bacteroides fragilis; test: as above
[13] = test system: strains of Bacteroides thetaiotaomicron; test: microbe, parasite or virus in culture
[14] = test system: strains of Prevotella bivia; test: MIC against anaerobes, agar dilution (CLSI), clinical isolates
[15] = test system: strains of Prevotella melaninogenica; test: as above

Cc1ccc2ncc(=O)n(CCN[C@H]3CC[C@H]4[C@@H](C3)OC(=O)N4c3ccc4c(n3)NC(=O)CO4)c2c1 [Compound 27, 1-(2-{[(3aS,6S,7aR)-2-oxo-3-{3-oxo-2H,3H,4H-pyrido[3,2-b][1,4]oxazin-6-yl}-octahydro-1,3-benzoxazol-6-yl]amino}ethyl)-7-methyl-1,2-dihydroquinoxalin-2-one]
MIC [1]: 1 to 10 µg/mL (≈ 2.04 to 20.4 µM) | MIC [2]: < 1 µg/mL | MIC [3]: 1 to 4 µg/mL (≈ 2.04 to 8.15 µM) | MIC [4]: 4 to 16 µg/mL (≈ 8.15 to 32.6 µM) | MIC [5]: 1 to 4 µg/mL (≈ 2.04 to 8.15 µM) | MIC ([6]; Clostridium perfringens strain 1): < 1 µg/mL | MIC ([6]; Clostridium perfringens strain 2): < 1 µg/mL | MIC ([6]; Clostridium perfringens strain 3): < 1 µg/mL | MIC ([6]; Clostridium perfringens strain 4): < 1 µg/mL | MIC ([6]; Clostridium perfringens strain 5): < 1 µg/mL | MIC ([6]; Clostridium perfringens strain 6): < 1 µg/mL | MIC ([6]; Clostridium perfringens strain 7): < 1 µg/mL | MIC ([6]; Clostridium perfringens strain 8): 1 to 4 µg/mL (≈ 2.04 to 8.15 µM) | MIC ([6]; Clostridium perfringens strain 9): < 1 µg/mL | MIC ([6]; Clostridium perfringens strain 10): < 1 µg/mL | MIC ([6]; Clostridium perfringens strain 11): < 1 µg/mL | MIC ([7]; Finegoldia magna strain 1): 1 to 4 µg/mL (≈ 2.04 to 8.15 µM) | MIC ([7]; Finegoldia magna strain 2): 16 to 64 µg/mL (≈ 32.6 to 130 µM) | MIC ([7]; Finegoldia magna strain 3): 1 to 4 µg/mL (≈ 2.04 to 8.15 µM) | MIC ([7]; Finegoldia magna strain 4): 16 to 64 µg/mL (≈ 32.6 to 130 µM) | MIC ([7]; Finegoldia magna strain 5): 16 to 64 µg/mL (≈ 32.6 to 130 µM) | MIC ([7]; Finegoldia magna strain 6): 16 to 64 µg/mL (≈ 32.6 to 130 µM) | MIC ([7]; Finegoldia magna strain 7): > 64 µg/mL | MIC ([7]; Finegoldia magna strain 8): 1 to 4 µg/mL (≈ 2.04 to 8.15 µM) | MIC ([7]; Finegoldia magna strain 9): > 64 µg/mL | MIC ([7]; Finegoldia magna strain 10): 4 to 16 µg/mL (≈ 8.15 to 32.6 µM) | MIC ([7]; Finegoldia magna strain 11): 16 to 64 µg/mL (≈ 32.6 to 130 µM) | MIC ([7]; Finegoldia magna strain 12): 16 to 64 µg/mL (≈ 32.6 to 130 µM) | MIC ([8]; Parvimonas micra strain 1): > 64 µg/mL | MIC ([8]; Parvimonas micra strain 2): 16 to 64 µg/mL (≈ 32.6 to 130 µM) | MIC ([8]; Parvimonas micra strain 3): > 64 µg/mL | MIC ([8]; Parvimonas micra strain 4): > 64 µg/mL | MIC ([8]; Parvimonas micra strain 5): > 64 µg/mL | MIC ([8]; Parvimonas micra strain 6): 1 to 4 µg/mL (≈ 2.04 to 8.15 µM) | MIC ([8]; Parvimonas micra strain 7): 16 to 64 µg/mL (≈ 32.6 to 130 µM) | MIC ([8]; Parvimonas micra strain 8): 16 to 64 µg/mL (≈ 32.6 to 130 µM) | MIC ([8]; Parvimonas micra strain 9): 16 to 64 µg/mL (≈ 32.6 to 130 µM) | MIC ([8]; Parvimonas micra strain 10): 16 to 64 µg/mL (≈ 32.6 to 130 µM) | MIC ([8]; Parvimonas micra strain 11): 16 to 64 µg/mL (≈ 32.6 to 130 µM) | MIC ([8]; Parvimonas micra strain 12): 16 to 64 µg/mL (≈ 32.6 to 130 µM) | MIC ([9]; Peptoniphilus harei strain 1): < 1 µg/mL | MIC ([9]; Peptoniphilus harei strain 2): < 1 µg/mL | MIC ([9]; Peptoniphilus harei strain 3): < 1 µg/mL | MIC ([9]; Peptoniphilus harei strain 4): < 1 µg/mL | MIC ([9]; Peptoniphilus harei strain 5): < 1 µg/mL | MIC ([9]; Peptoniphilus harei strain 6): < 1 µg/mL | MIC ([9]; Peptoniphilus harei strain 7): < 1 µg/mL | MIC ([9]; Peptoniphilus harei strain 8): < 1 µg/mL | MIC ([9]; Peptoniphilus harei strain 9): < 1 µg/mL | MIC ([9]; Peptoniphilus harei strain 10): < 1 µg/mL | MIC ([9]; Peptoniphilus harei strain 11): < 1 µg/mL | MIC ([9]; Peptoniphilus harei strain 12): < 1 µg/mL | MIC ([10]; Peptostreptococcus anaerobius strain 1): < 1 µg/mL | MIC ([10]; Peptostreptococcus anaerobius strain 2): < 1 µg/mL | MIC ([10]; Peptostreptococcus anaerobius strain 3): < 1 µg/mL | MIC ([10]; Peptostreptococcus anaerobius strain 4): 4 to 16 µg/mL (≈ 8.15 to 32.6 µM) | MIC ([10]; Peptostreptococcus anaerobius strain 5): < 1 µg/mL | MIC ([10]; Peptostreptococcus anaerobius strain 6): < 1 µg/mL | MIC ([10]; Peptostreptococcus anaerobius strain 7): < 1 µg/mL | MIC ([10]; Peptostreptococcus anaerobius strain 8): < 1 µg/mL | MIC ([10]; Peptostreptococcus anaerobius strain 9): < 1 µg/mL | MIC ([10]; Peptostreptococcus anaerobius strain 10): < 1 µg/mL | MIC ([11]; Propionibacterium acnes strain 1): 1 to 4 µg/mL (≈ 2.04 to 8.15 µM) | MIC ([11]; Propionibacterium acnes strain 2): < 1 µg/mL | MIC ([11]; Propionibacterium acnes strain 3): < 1 µg/mL | MIC ([11]; Propionibacterium acnes strain 4): < 1 µg/mL | MIC ([11]; Propionibacterium acnes strain 5): 1 to 4 µg/mL (≈ 2.04 to 8.15 µM) | MIC ([11]; Propionibacterium acnes strain 6): 1 to 4 µg/mL (≈ 2.04 to 8.15 µM) | MIC ([11]; Propionibacterium acnes strain 7): 1 to 4 µg/mL (≈ 2.04 to 8.15 µM) | MIC ([11]; Propionibacterium acnes strain 8): 1 to 4 µg/mL (≈ 2.04 to 8.15 µM) | MIC ([11]; Propionibacterium acnes strain 9): 1 to 4 µg/mL (≈ 2.04 to 8.15 µM) | MIC ([11]; Propionibacterium acnes strain 10): 1 to 4 µg/mL (≈ 2.04 to 8.15 µM) | MIC ([11]; Propionibacterium acnes strain 11): < 1 µg/mL | MIC ([11]; Propionibacterium acnes strain 12): 1 to 4 µg/mL (≈ 2.04 to 8.15 µM) | MIC ([12]; Bacteroides fragilis strain 1): 16 to 64 µg/mL (≈ 32.6 to 130 µM) | MIC ([12]; Bacteroides fragilis strain 2): 1 to 4 µg/mL (≈ 2.04 to 8.15 µM) | MIC ([12]; Bacteroides fragilis strain 3): 1 to 4 µg/mL (≈ 2.04 to 8.15 µM) | MIC ([12]; Bacteroides fragilis strain 4): 1 to 4 µg/mL (≈ 2.04 to 8.15 µM) | MIC ([12]; Bacteroides fragilis strain 5): 1 to 4 µg/mL (≈ 2.04 to 8.15 µM) | MIC ([12]; Bacteroides fragilis strain 6): 1 to 4 µg/mL (≈ 2.04 to 8.15 µM) | MIC ([12]; Bacteroides fragilis strain 7): 4 to 16 µg/mL (≈ 8.15 to 32.6 µM) | MIC ([12]; Bacteroides fragilis strain 8): 1 to 4 µg/mL (≈ 2.04 to 8.15 µM) | MIC ([12]; Bacteroides fragilis strain 9): 1 to 4 µg/mL (≈ 2.04 to 8.15 µM) | MIC ([12]; Bacteroides fragilis strain 10): 1 to 4 µg/mL (≈ 2.04 to 8.15 µM) | MIC ([12]; Bacteroides fragilis strain 11): 1 to 4 µg/mL (≈ 2.04 to 8.15 µM) | MIC ([12]; Bacteroides fragilis strain 12): 1 to 4 µg/mL (≈ 2.04 to 8.15 µM) | MIC ([13]; Bacteroides thetaiotaomicron strain 1, read-out: MIC): 4 to 16 µg/mL (≈ 8.15 to 32.6 µM) | MIC ([13]; Bacteroides thetaiotaomicron strain 2, read-out: MIC): 1 to 4 µg/mL (≈ 2.04 to 8.15 µM) | MIC ([13]; Bacteroides thetaiotaomicron strain 3, read-out: MIC): 4 to 16 µg/mL (≈ 8.15 to 32.6 µM) | MIC ([13]; Bacteroides thetaiotaomicron strain 4, read-out: MIC): 4 to 16 µg/mL (≈ 8.15 to 32.6 µM) | MIC ([13]; Bacteroides thetaiotaomicron strain 5, read-out: MIC): 1 to 4 µg/mL (≈ 2.04 to 8.15 µM) | MIC ([13]; Bacteroides thetaiotaomicron strain 6, read-out: MIC): 4 to 16 µg/mL (≈ 8.15 to 32.6 µM) | MIC ([13]; Bacteroides thetaiotaomicron strain 7, read-out: MIC): 4 to 16 µg/mL (≈ 8.15 to 32.6 µM) | MIC ([13]; Bacteroides thetaiotaomicron strain 8, read-out: MIC): 1 to 4 µg/mL (≈ 2.04 to 8.15 µM) | MIC ([13]; Bacteroides thetaiotaomicron strain 9, read-out: MIC): < 1 µg/mL | MIC ([13]; Bacteroides thetaiotaomicron strain 10, read-out: MIC): 1 to 4 µg/mL (≈ 2.04 to 8.15 µM) | MIC ([13]; Bacteroides thetaiotaomicron strain 11, read-out: MIC): 4 to 16 µg/mL (≈ 8.15 to 32.6 µM) | MIC ([14]; Prevotella bivia strain 1): < 1 µg/mL | MIC ([14]; Prevotella bivia strain 2): < 1 µg/mL | MIC ([14]; Prevotella bivia strain 3): 1 to 4 µg/mL (≈ 2.04 to 8.15 µM) | MIC ([14]; Prevotella bivia strain 4): 1 to 4 µg/mL (≈ 2.04 to 8.15 µM) | MIC ([14]; Prevotella bivia strain 5): < 1 µg/mL | MIC ([14]; Prevotella bivia strain 6): 1 to 4 µg/mL (≈ 2.04 to 8.15 µM) | MIC ([14]; Prevotella bivia strain 7): 1 to 4 µg/mL (≈ 2.04 to 8.15 µM) | MIC ([14]; Prevotella bivia strain 8): < 1 µg/mL | MIC ([14]; Prevotella bivia strain 9): < 1 µg/mL | MIC ([14]; Prevotella bivia strain 10): < 1 µg/mL | MIC ([15]; Prevotella melaninogenica strain 1): 1 to 4 µg/mL (≈ 2.04 to 8.15 µM) | MIC ([15]; Prevotella melaninogenica strain 2): < 1 µg/mL | MIC ([15]; Prevotella melaninogenica strain 3): < 1 µg/mL | MIC ([15]; Prevotella melaninogenica strain 4): < 1 µg/mL | MIC ([15]; Prevotella melaninogenica strain 5): < 1 µg/mL | MIC ([15]; Prevotella melaninogenica strain 6): < 1 µg/mL | MIC ([15]; Prevotella melaninogenica strain 7): < 1 µg/mL | MIC ([15]; Prevotella melaninogenica strain 8): < 1 µg/mL | MIC ([15]; Prevotella melaninogenica strain 9): < 1 µg/mL | MIC ([15]; Prevotella melaninogenica strain 10): 1 to 4 µg/mL (≈ 2.04 to 8.15 µM) | MIC ([15]; Prevotella melaninogenica strain 11): < 1 µg/mL
